Measurements from US20050187581A1, “Methods of treating disorders with electric fields” (priority 2000, published 2005).

How the values were obtained:
ovariectomized rats = conditions: restraint, after 60 min session, n=6
Protocol: Rats were restricted by wrapping each with a thin polycarbonate sheet and laying it over the lower electrode for 30 min.
To examine the effect of exposure to EF, we used normal and ovariectomized rats. Normal rats were divided into two groups of restraint alone and restraint plus EF.
Ovariectomies were performed 4 weeks before experimentation. EF exposure and restraint treatment applied in this study were as follows: Rats were exposed to 50 Hz, 17,500 V/m EF for a total of 1 hr. Rats were restrained with thin polycarbonate sheeting for the latter half of the EF exposure period. The experimental design in the control groups was the same as in the experimental group except for the absence of EF exposure. […]
Hematological analyses including red and white blood cell count, platelet count, hematocrit and hemoglobin levels were performed using an automatic multi-hemocytometer (Sysmec CC-78, Sysmec inc., Tokyo, Japan). Plasma glucose, lactate and pyruvate levels were measured with an automatic analyzer (7170 Hitachi, Hitachi Co. ltd., Tokyo, Japan). ACTH levels were measured by using an ACTH radio immunoassay kit (ACTH IRMA, MITSUBISHI CHEMICAL Co. Ltd.) and a gamma counter (Auto-Gamma 5530 Gamma Counting System, Packard Instrument Co. ltd.). Plasma corticosterone level was measured using a commercial kit (ImmuChem Double Antibody Corticosterone kit, ICN Biomedicals Inc.). […]

[1] = test system: BALB 3T3/A31 fibroblast/embryo cells; test: Membrane potential of BALB 3T3 cells, DiBAC intensity; type: cell-based, murine; conditions: final concentration of 0.4 mM A23187
Protocol: A23187 is a monocarboxylic acid extracted from Streptomyces chartreusensis that acts as a mobile-carrier calcium ionophore. DiBAC is a fluorescent dye that enters the cell membrane when the membrane's potential changes. Thus, when the membranes of the BALB 3T3 cells depolarize, the DiBAC enters those membranes thereby increasing the intensity of the DiBAC signal (Y-axis) in the BALB 3T3 cells.
The changes in membrane potential were measured with flow cytometry. The methodology for the flow cytometry was as follows. Culture in DMEM was supplemented with 5% FCS 10 mM HEPES. It was then de-touched with 0.02% trypsin and 0.025% EDTA. […] It was then loaded with DiBAC4(3) of a final concentration of 200 nM. It was incubated at 37 degree C. for >5 min. Then the flow cytometry measurements were performed.

mouse splenocytes = test: [Ca^2+]c-high cells in lectin-stimulated mouse splenocytes, fluo-3 flow cytometry; type: cell-based, BALB/c mice
Protocol: In order to avoid contact of the cells and the lower electrode, polycarbonate membrane (Isopore, MILLIPORE, MA USA) was placed between the dish and the insert. Approximately 1 ml of the cell suspension was poured into culture well/space and covered with a lid.
Female BALB/c mice, 4-7 wk old obtained from CLEA Inc. (Tokyo, Japan) maintained in a conventional animal house equipped with clean air-filtering device were splenectomized under anesthesia, and cell suspensions of splenocytes were prepared. To examine cell viability, the cells were cultivated in Dulbecco's modified Eagle's medium (SIGMA, MO, USA) supplemented with 10% fetal bovine serum (FSB). The cells were maintained in Hank's balanced salt solution (HBSS) (SIGMA, MO, USA) during examination for [Ca^2+]c which was carried out within 4 hr after cell preparation. Cells were stored at 4 degree C. prior to use.
Splenocytes (10^6 cells/ml) were incubated for 20 min at 37 degrees C. in HBSS containing 2.5 μM fluo-3-acetoxylmethyl (Molecular Probes, USA) [Vandenberghe et al., 1990]. The cell suspension was then diluted 5 times with HBSS containing 1% FBS, incubated for 40 min at 37 degrees C., washed 3 times with assay buffer, and the cells were then suspended in the assay buffer at a concentration of 1×10^6/ml. Throughout the cell preparation, the cell suspensions were mixed gently.
Considering the reported synergistic interaction between EMF and mitogen (Walleczek and Liburdy, 1990), concanavalin-A (Con-A) (Seikagaku Co., Tokyo, Japan) and phytohemaglutinin (PHA) (SIGMA, MO, USA) were used.
Taking into account the results of the viability test for exposed murine splenocytes earlier assayed, we chose to use the optimum culture and exposure conditions (60 Hz, 6 μA/cm^2 EF) in carrying out the following five experiments: • (1) cells suspended in HEPES-buffered saline (BS)+1 mM CaCl2 were exposed to EF for a total of 40 min, and 12.5 μg/ml of Con-A was added after the first 8 min of exposure. The control groups consisted of EF-unexposed cells containing Con-A, and EF-exposed cells without Con-A. Percent [Ca^2+]c-high cells was checked at certain exposure points; • (2) cells in HEPES-BS+1 mM CaCl2 were exposed for a total of 12 min, and different concentrations (1 ng-12.5 μg/ml) of Con-A were added after the first 4 min of exposure. The control group was essentially the same as that of the experimental group but without EF-exposure; • (3) cells in HEPES-BS+1 mM CaCl2 were exposed for a total of 8 min, and 5 μg/ml of PHA was added after the first 4 min of exposure. The control groups consisted of EF-unexposed cells containing PHA, and EF-exposed cells without PHA; • (4) cells suspended in HEPES-BS without CaCl2 were exposed for a total of 12 min, and different concentrations (1 ng-5 μg/mil) of Con-A were added after the first 4 min of exposure. The control group was essentially the same as the experimental group but without EF exposure; and • (5) to evaluate the persistent effect of EF exposure, cells suspended in HEPES-BS+[…] were exposed for a total of 4 min, after which different concentrations (0.025-12.5 μg/ml) of Con-A were added, and the generation of [Ca^2+]c-high cells for the next 8 min without EF exposure was monitored with flow cytometry. The control was essentially the same as the experimental group but without any EF-exposure. Statistical Analysis

murine splenocytes = test: Cytoplasmic free Ca^2+ in murine splenocytes stimulated with ConA, fluo3 flow cytometry; type: cell-based, mice; conditions: ConA stimulation after 4 min exposure
Protocol: In order to determine the effect of EF on calcium ion concentration in murine splenocytes, specific EF field exposures of 60 Hz were applied to murine splenocytes. Mice were splenectomized under anesthesia. In a 60 mm dish, the spleen was injected with PBS (phosphate buffered saline including 0.083% NH4Cl). The cells were re-suspended and maintained in Hank's balanced salt solution (HBSS) (SIGMA, MO, USA), during examination for [Ca^2+ ]c, which was carried out within 4 hours after cell preparation. Cells were stored at 4° C. prior to use.
The application of a 60 Hz EF to splenocyte cells created applied current densities of 6, 20, 60, and 200 μA/cm^2. Splenocyte cells were exposed to these conditions for 4 minutes, after which exposure the splenocyte samples were stimulated with Concanavalin A (ConA). Following stimulation of splenocytes with ConA, cytoplasmic free Ca^2+ concentration was determined by fluo3 flow cytometry.

With `CN1C(=O)CN=C(c2ccccc2)c2cc(Cl)ccc21` [diazepam] the WBC counts (ovariectomized rats) was 85 ×10^2 cells/μl.

With `CNc1ccc2oc(C[C@H]3O[C@@]4(CC[C@H]3C)O[C@H]([C@H](C)C(=O)c3ccc[nH]3)[C@H](C)C[C@H]4C)nc2c1C(=O)O` [A23187] the “Membrane potential (DiBAC intensity)” value [1] was “alters the membrane potential”.

In the case of concanavalin-A [Con-A], the “Time post-Con-A stimulation of decline in [Ca^2+]c-high cells” value (mouse splenocytes; 12.5 μg/ml Con-A) is reported as “approximately 4 min”, the “Time to saturation point of Con-A-induced response after addition of the mitogen” value (mouse splenocytes; 12.5 μg/ml Con-A) is reported as 5 to 8 min and the “Number of [Ca^2+]c-high cells” value (mouse splenocytes; 12.5 μg/ml Con-A, 1 mM CaCl2, EF-exposed and unexposed cell suspensions) is reported as “increased significantly”. For the same compound, the “[Ca^2+]c-high cells compared to cells stimulated with 0.025 μg/ml of Con-A” value (mouse splenocytes; 3.125-12.5 μg/ml Con-A, unexposed or earlier exposed to EF for 4 min) was “significant increase”, the “Time post-Con-A stimulation at which sustained increase in [Ca^2+]c-high cells leveled off” value (mouse splenocytes; 3.125 and 6.25 μg/ml Con-A) was “about 8 min” and the “Con-A-dependent [Ca^2+]c rise” value (mouse splenocytes; Ca^2+-free cell condition, control and EF-exposed groups) was “negligible”. The “Calcium concentration in the splenocyte cells” value (murine splenocytes) was “increased”.
